Values after ≈ are worked out from the molar mass of the structure shown.
Columns and labels:
mouse myometrial tissue = test: Ex vivo isometric myometrial contractility organ bath assay; conditions: for Emax: read-out: Emax, inhibition of myometrial contractions; for IC50: read-out: IC50, inhibition of myometrial contractions
[1] = In vitro therapeutic index; conditions: smallest cell viability IC50 among the three cell types / Ca2+ assay IC50
[2] = Intrinsic clearance in liver microsomes; format: in vitro ADME; conditions: mouse
Solubility = format: physicochemical
[3] = Human plasma protein binding; format: in vitro ADME
[4] = Intrinsic clearance in liver microsomes; format: in vitro ADME; conditions: human
MDCK permeability = format: in vitro ADME; conditions: dog
[5] = test system: primary aortic vascular smooth muscle cells (VSMCs); test: Ca2+-mobilization assay, concentration-response; format: cell-based, human
myometrial cells = test: Combination high-throughput Ca2+-mobilization assay; conditions: for synergy in combination Ca2+-mobilization assay: 8 x 8 dose matrices, Combenefit
[6] = Intrinsic clearance in liver microsomes; format: in vitro ADME; conditions: rat
primary myometrial cells = test: Ca2+-mobilization assay, concentration-response; format: cell-based; conditions: Homo sapiens, read-out: Emax, Myometrial, inhibition of Ca2+-mobilization
human myometrial tissue = test: Ex vivo isometric myometrial contractility organ bath assay; conditions: read-out: Emax, inhibition of myometrial contractions
[7] = test system: mifepristone-induced mouse model of PTB; test: In vivo therapeutic efficacy in mifepristone-induced mouse model of PTB
CD-1 pregnant mice = test: Minimal effective dose of mifepristone to induce PTB; format: in vivo, mouse; conditions: s.c. on day 15 of pregnancy
[8] = test system: mifepristone-induced mouse model of PTB; conditions: mifepristone 150 μg; prior study; cited from earlier work

Structure (SMILES)	Emax (mouse myometrial tissue) [%]	IC50 (mouse myometrial tissue) [µM]	TI (therapeutic index) [1]	microsomal CLint [2] [µL/min/mg]	solubility (Solubility) [µM]	fraction unbound [3]	microsomal CLint [4] [µL/min/mg]	Papp (MDCK permeability) [×10⁻⁶ cm/s]	synergy in combination Ca2+-mobilization assay (myometrial cells)	fold enhancement in potency in combination (myometrial cells; in combination with nifedipine)	fold improvement of efficacy in combination vs single-agent (myometrial cells; in combination with nifedipine) [fold]	microsomal CLint [6] [µL/min/mg]	Emax (primary myometrial cells) [%]	further results
COc1c(-c2coc3cc4c(cc3c2=O)CC(OC(C)=O)C(C)(C)O4)ccc2c1C=CC(C)(C)O2 (stereo not drawn) [MA, mundulone acetate]	27	> 100	8.8	886	11 to 20	0.001	27.2	22.1	exhibited synergistic efficacy with only nifedipine	2–3 fold	6	586	44.5	Emax, % difference ([5]; myometrial cells vs aorta VSMCs): 70%
COc1c(-c2coc3cc4c(cc3c2=O)CC(O)C(C)(C)O4)ccc2c1C=CC(C)(C)O2 (stereo not drawn) [Mundulone, mundulone]	70	10	0.8	47.1	21 to 40 (≈ 9.12 to 17.4 µg/mL)	0.007	< 20	49.4	displayed synergism with atosiban and nifedipine	2–3 fold	6	30.7	80.5	Emax (human myometrial tissue): 57%; timing of delivery ([7]; 30 μg mifepristone, 6.5, 13, or 26 mg/kg twice daily s.c., dose-dependently, p = 0.0457): delayed the timing of delivery; mortality ([7]; 26 mg/kg twice daily until the evening of day 17, 30 μg mifepristone): 100%; signs of impaired health or mortality in treated mice ([7]; single-agent, twice daily): did not show signs of impaired health or mortality until treated with 26 mg/kg twice daily for two days; IC50, Fold difference ([5]; aorta VSMCs vs myometrial cells): 2; fold improvement of efficacy in combination vs single-agent (myometrial cells; in combination with atosiban): 2 fold; fold improvement of potency in combination vs single-agent (myometrial cells; with either atosiban (FR 3.7:1) or nifedipine (FR 1:4.4)): 2–3 fold
CC#C[C@]1(O)CC[C@H]2[C@@H]3CCC4=CC(=O)CCC4=C3[C@@H](c3ccc(N(C)C)cc3)C[C@@]21C [mifepristone]	–	–	–	–	–	–	–	–	–	–	–	–	–	lowest dose required for 100% PTB rates (CD-1 pregnant mice): 30 µg
COC(=O)C1=C(C)NC(C)=C(C(=O)OC)C1c1ccccc1[N+](=O)[O-] [nifedipine]	–	–	–	–	–	–	–	–	–	–	–	–	–	delivery occurring post-mifepristone administration [8]: ≤ 25 h

Source: article PMC10712649 (Pharmacological research, 2023)
